Experimental data as given in article PMC5268410, “Mode of Action of the Natural Insecticide, Decaleside Involves Sodium Pump Inhibition” (PLoS ONE, 2017).
pIC50: −log10 of the molar value.

What was measured:
[1] = target: T1, purified Na^+, K^+ -ATPase (porcine cerebral cortex); experiment: phosphate release from ATP, ouabain-inhibitable activity; format: biochemical, Sus scrofa; conditions: 1.5 mM ATP; Na+ 0.14 M, K+ 14 mM, Mg2+ 3 mM; 37°C; 30 min preincubation; competitive with ATP
T1 construct: gene ATP1A1; commercial native enzyme purified from porcine cerebral cortex (Sigma); with Sodium/potassium-transporting ATPase subunit beta-1; Sodium/potassium-transporting ATPase subunit beta-2

[2] = target: T1, purified Na^+, K^+ -ATPase (porcine cerebral cortex); experiment: phosphate release from ATP; format: biochemical, Sus scrofa; conditions: 1.5 mM ATP; Na+ 0.14 M, K+ 14 mM, Mg2+ 3 mM; 37°C

Row | Compound | pIC50 [1] | pIC50 [2]
1 | decaleside II | 4.02 | –
2 | C[C@@H]1O[C@@H](O[C@H]2C[C@@H](O)[C@]3(CO)[C@H]4[C@H](O)C[C@]5(C)[C@@H](C6=CC(=O)OC6)CC[C@]5(O)[C@@H]4CC[C@]3(O)C2)[C@H](O)[C@H](O)[C@H]1O [Ouabain] | – | 3.60
3 | decaleside I | 3.98 | –
